Data: patent publication US20090162315A1 (priority 2004, published 2009)
Values joined by “and” are separate entries in the source; they are usually repeats but may differ in a detail not shown here. Equal entries are not always repeated.

Legend:
patients with MPE = conditions: in vivo; cited from earlier work
[1] = tested on: T84 human colon-carcinoma cells; assay type: cell-based
[2] = tested on: T84 human colon-carcinoma cells; assay type: cell-based; remark: listed apart in the source
[3] = tested on: T84 human colon-carcinoma cells; assay type: cell-based; remark: listed apart in the source

Row | Compound | Response rate in MPE (patients with MPE) | Δ Isc to CCh (μA/cm2) [1] | Δ Isc to Fsk (% of control) [1] | TER (Ω/cm^2) [2] | ^51Cr-EDTA flux (nml · h · cm^2) [3]
1 | bleomycin | 50% | – | – | – | –
2 | Staphylococcal enterotoxin B [SEB] | – | 23 μA/cm2 | 95 % of control | – | –
3 | N.N.[Cl][Pt][Cl] [Cisplatin, cis-diaminodichloroplatinum] | – | 20 μA/cm2 | 90 % of control | 800 Ω/cm^2 and 750 Ω/cm^2 | 2.8 nml · h · cm^2
